Entries after “also recorded” stand apart in the source; their conditions may differ. Like-named read-outs stand apart in the source and are kept apart here. Bridge positions count the residues as written; N and C are the ends. Peptide text beside a SMILES is read from it.
Columns and labels:
[1] = target: KLK5 (Homo sapiens, UniProt Q9Y337); experiment: Inhibitor kinetics: KLK5 amidolytic activity; format: biochemical; conditions: substrate Bz-PFR-pNA (0.2 mM)
[2] = target: T1, bovine thrombin (Bos taurus, UniProt P00735); experiment: Inhibitor kinetics: thrombin amidolytic activity; format: biochemical; conditions: substrate Bz-FVR-pNA (0.2 mM)
T1 construct: purchased Sigma Chemicals
Protocol: (§1) All enzymes and substrates were obtained from Sigma Chemicals if not otherwise specified. […] The release of pNa moiety was monitored as described above for 7 minutes with each point being the average of three independent triplicate reactions. IC50 was determined using the Prism 5 software suite (GraphPad software Inc.).

[3] = target: T2, human matriptase (Homo sapiens, UniProt Q9Y5Y6); experiment: Inhibitor kinetics: matriptase amidolytic activity; format: biochemical; conditions: substrate Bz-FVR-pNA (0.2 mM)
T2 construct: purchased R&D Systems
T2 sequence (Q9Y5Y6 615-855 limits assumed): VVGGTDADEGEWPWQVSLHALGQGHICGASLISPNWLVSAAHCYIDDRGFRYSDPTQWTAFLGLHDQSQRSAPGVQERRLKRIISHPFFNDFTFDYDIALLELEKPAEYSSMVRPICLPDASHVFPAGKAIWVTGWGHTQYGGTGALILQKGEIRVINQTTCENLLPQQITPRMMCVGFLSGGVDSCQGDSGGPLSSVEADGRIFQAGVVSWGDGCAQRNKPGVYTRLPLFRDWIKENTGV
Protocol: as §1

[4] = target: T3, bovine α-chymotrypsin (Bos taurus, UniProt P00766); experiment: Inhibitor kinetics: α-chymotrypsin amidolytic activity; format: biochemical; conditions: substrate W-pNA (0.2 mM)
T3 construct: purchased Sigma Chemicals
Protocol: as §1

[5] = target: T4, bovine plasminogen (Bos taurus, UniProt P06868); experiment: Inhibitor kinetics: plasminogen amidolytic activity; format: biochemical; conditions: substrate L-pNA, BAPNA (0.2 mM)
T4 construct: purchased Sigma Chemicals; host or cells: bovine plasma
Protocol: as §1

[6] = target: T5, trypsin (Bos taurus, UniProt P00760); experiment: Protein proteolysis: fibrinogen digestion by trypsin (SDS-PAGE); format: biochemical, bovine; conditions: up to a concentration of 2 μM
T5 construct: purchased Sigma Chemicals
Protocol: Fibrinogen was solubilised in assay buffer to a final concentration of 1 mg/ml and digested with KLK4 (+/−inhibitor) over a period of 90 minutes at 37° C. Typically assays consisted of 5 μM protein substrate and 2.5 nM KLK4 protein or 1 nM trypsin made up to a final volume of 8 μl with assay buffer. Proteolysis was initiated by addition of KLK4 and terminated by addition of SDS PAGE sample buffer and heat denaturation at 100° C. for 5 minutes. Hydrolysis products were resolved on 10% SDS PAGE gels and compared with incubations terminated immediately after initiation (time 0), and substrate proteins incubated in assay buffer for 90 minutes in the absence of KLK4 or 4-16 mins with trypsin.

[7] = target: KLK2 (Homo sapiens, UniProt P20151); experiment: Protein proteolysis: fibrinogen digestion by KLK2; format: biochemical; conditions: up to a concentration of 2 μM
[8] = test system: human PAR-2; experiment: PAR-2 activating peptide stimulated calcium release in LMF stably expressing human PAR-2; format: cell-based
Protocol: Lung murine fibroblasts (LMF) from Par-1 null mice stably expressing human PAR-2 were grown to 80% confluence as previously described, washed with PBS, detached nonenzymatically, resuspended (4×10^6 cells/ml) in extracellular medium (121 mM NaCl, 5.4 mM KCl, 0.8 mM MgCl2, 1.8 mM CaCl2, 5.5 mM glucose, 25 mM HEPES (pH 7.4)) containing 0.2% (w/v) bovine serum albumin (Sigma) and then loaded with the fluorescence indicator Fura-2 acetoxymethyl ester (1.0 μM; Invitrogen) at room temperature for 60 min. Cells were then pelleted followed by resuspension in extracellular medium (without bovine serum albumin) at a concentration of 2×10^6 cells/ml for fluorescence measurements. The ratio of fluorescence at 510 nm after excitation at 340 and 380 nm was monitored (Polarstar Optima fluorescent plate reader) during treatment with bovine β trypsin (Sigma Chemicals), PAR-2 activating peptide SLIGKV (AusPep) and iKLK4 with or without SFTI-FCQR.

[9] = target: KLK4 (Homo sapiens, UniProt Q9Y5K2); experiment: Inhibitor kinetics: KLK4 amidolytic activity with peptide-pNA substrates; format: biochemical; design: pro-region of PSA (KLK3), replacing the native KLK4 pro-region (N, cleaved yes); made in house
Protocol: Human recombinant KLK4 was expressed in E. coli using a previously described chimeric KLK4 plasmid construct where the native pro-region was replaced with the pro-region of PSA, enabling autoactivation. Protein was expressed as inclusion bodies which were isolated and solubilised as described previously to yield 90% pure KLK4. Protein refolding was performed by dilution into 100 volumes of refolding buffer I (2 M urea, 0.1M NaCl, 5 mM GSH, 0.5 mM GSSG, 10 mM benzamidine, 50 mM tris HCl pH 8.0, 2 mM CaCl2) over 44 hours before further dilution into 3 volumes refolding buffer II (refolding buffer I with 0.5 M urea 0.5 mM GSH, 0.05 mM GSSG, 2 mM CaCl2) over another 24 hours. Dialysis was performed as previously described (with additional 2 mM CaCl2 to reduce aggregation) before concentration using UNO sphere Q (Biorad) eluting with tris buffered saline (pH 7.5)/2 mM CaCl2. Subsequently, the material was purified to apparent homogeneity (according to coomassie blue stained SDS PAGE) by gel filtration using Sephacryl S-200 (GE Health Care) pre-equilibrated with 50 mM Tris-HCl pH 7.5, 20 mM NaCl and 2 mM CaCl2.
All enzymes and substrates were obtained from Sigma Chemicals if not otherwise specified. Bacterially expressed human KLK4 (37 ng), bovine β-trypsin (20 ng), bovine thrombin (20 ng), bovine α-chymotrypsin (0.5 μg), protease (0.5 μg; Streptomyces griseus type XIV), bovine plasminogen (0.5 μg), and human matriptase (30 ng; R&D Systems) were incubated with various concentrations of inhibitors in 200 μL assay buffer for 10 minutes prior to initiation by the addition of 100 μL of 0.3 mM of peptide-pNA substrates (FVQR-pNA: KLK4; BAPNA: trypsin, (Streptomyces griseus Type XIV Protease and bovine plasma plasminogen); Bz-Phe-Val-Arg-pNA: thrombin and matriptase; Trp-pNA: α-chymotrypsin; Leu-pNA: (Streptomyces griseus Type XIV Protease and bovine plasma plasminogen). The release of pNa moiety was monitored as described above for 7 minutes with each point being the average of three independent triplicate reactions. IC50 was determined using the Prism 5 software suite (GraphPad software Inc.).

KLK4, sequence (Q9Y5K2 31-254): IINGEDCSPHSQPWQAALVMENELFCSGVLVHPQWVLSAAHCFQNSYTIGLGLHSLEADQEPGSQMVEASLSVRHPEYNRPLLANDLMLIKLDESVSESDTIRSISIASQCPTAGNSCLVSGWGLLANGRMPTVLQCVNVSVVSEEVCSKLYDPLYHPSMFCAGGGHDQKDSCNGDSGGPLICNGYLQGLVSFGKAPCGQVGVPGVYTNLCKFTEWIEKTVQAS
T4 sequence (P06868 27-812 limits assumed): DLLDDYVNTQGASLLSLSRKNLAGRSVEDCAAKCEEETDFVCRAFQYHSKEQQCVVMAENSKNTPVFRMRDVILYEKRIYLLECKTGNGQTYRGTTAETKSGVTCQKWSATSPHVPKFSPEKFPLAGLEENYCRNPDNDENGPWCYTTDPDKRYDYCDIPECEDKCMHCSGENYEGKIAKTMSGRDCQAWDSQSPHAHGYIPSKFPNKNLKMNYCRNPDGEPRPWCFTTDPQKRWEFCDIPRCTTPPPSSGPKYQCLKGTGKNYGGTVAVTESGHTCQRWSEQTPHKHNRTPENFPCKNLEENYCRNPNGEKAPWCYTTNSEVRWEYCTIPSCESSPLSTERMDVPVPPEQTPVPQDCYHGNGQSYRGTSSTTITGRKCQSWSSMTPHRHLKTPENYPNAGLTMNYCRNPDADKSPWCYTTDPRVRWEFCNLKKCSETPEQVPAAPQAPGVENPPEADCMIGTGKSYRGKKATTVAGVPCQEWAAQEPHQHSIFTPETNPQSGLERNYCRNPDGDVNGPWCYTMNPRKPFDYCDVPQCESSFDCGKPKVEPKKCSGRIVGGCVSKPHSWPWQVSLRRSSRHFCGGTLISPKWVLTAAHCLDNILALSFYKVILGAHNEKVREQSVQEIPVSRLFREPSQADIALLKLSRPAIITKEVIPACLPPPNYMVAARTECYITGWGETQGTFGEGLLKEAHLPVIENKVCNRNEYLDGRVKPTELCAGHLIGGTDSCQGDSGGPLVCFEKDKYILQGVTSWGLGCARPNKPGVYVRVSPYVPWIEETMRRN
KLK5, sequence (Q9Y337 23-293): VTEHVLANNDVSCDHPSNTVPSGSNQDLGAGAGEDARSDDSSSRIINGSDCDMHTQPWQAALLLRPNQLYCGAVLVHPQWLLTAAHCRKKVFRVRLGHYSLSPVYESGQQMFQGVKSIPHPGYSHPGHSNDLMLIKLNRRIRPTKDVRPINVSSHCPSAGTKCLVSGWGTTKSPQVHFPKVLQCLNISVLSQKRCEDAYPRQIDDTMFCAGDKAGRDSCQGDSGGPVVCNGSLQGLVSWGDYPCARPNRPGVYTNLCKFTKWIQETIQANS
KLK2, sequence (P20151 25-261): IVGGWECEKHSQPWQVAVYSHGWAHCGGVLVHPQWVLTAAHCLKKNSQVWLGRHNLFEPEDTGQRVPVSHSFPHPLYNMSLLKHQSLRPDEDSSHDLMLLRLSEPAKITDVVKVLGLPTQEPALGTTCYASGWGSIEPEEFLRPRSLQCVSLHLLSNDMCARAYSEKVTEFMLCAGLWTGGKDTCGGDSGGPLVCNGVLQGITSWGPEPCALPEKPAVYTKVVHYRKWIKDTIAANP
T5 sequence (P00760 18-246 limits assumed): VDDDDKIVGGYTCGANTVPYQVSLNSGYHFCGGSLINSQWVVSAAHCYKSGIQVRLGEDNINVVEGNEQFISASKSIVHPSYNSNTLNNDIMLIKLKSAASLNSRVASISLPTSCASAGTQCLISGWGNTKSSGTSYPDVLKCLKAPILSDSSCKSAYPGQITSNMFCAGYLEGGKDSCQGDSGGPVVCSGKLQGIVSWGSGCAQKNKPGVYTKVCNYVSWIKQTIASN

CC[C@H](C)[C@@H]1NC(=O)[C@@H]2CCCN2C(=O)[C@@H]2CCCN2C(=O)[C@H]([C@@H](C)CC)NC(=O)[C@H](CO)NC(=O)[C@H](CCCNC(=N)N)NC(=O)[C@H](CCC(N)=O)NC(=O)[C@@H]2CSSC[C@H](NC1=O)C(=O)N[C@@H](Cc1ccccc1)C(=O)N1CCC[C@H]1C(=O)N[C@@H](CC(=O)O)C(=O)NCC(=O)N[C@@H](Cc1ccccc1)C(=O)N2 [SFTI-FCQR] (cyclo(GFCQRSIPPICFPD); disulfide 3-11)
IC50 [1]: 2350 ± 721 nM
IC50 [2]: did not inhibit
IC50 ([2]; read-out: IC50): > 10 µM
IC50 [3]: did not inhibit
IC50 ([3]; read-out: IC50): > 10 µM
IC50 [4]: did not inhibit
IC50 ([4]; read-out: IC50): > 10 µM
IC50 [5]: did not inhibit
IC50 ([5]; read-out: IC50): > 10 µM
inhibition of tryptic digestion of fibrinogen [6]: no inhibition
inhibition of KLK2 digestion of fibrinogen [7]: no inhibition
effect on calcium release by PAR-2 activating peptide ([8]; 1 μM SFTI-FCQR, PAR-2 activating peptide 100 nM): permissive for calcium release; also recorded: no effect
effect on intracellular Ca^2+ of inhibitor alone ([8]; SFTI-FCQR 1 μM without agonist): no effect
IC50 [9]: 7.97 ± 1.08 nM
Ki [9]: 3.59 ± 1.08 nM
